Legend:
Carboplatin = compound: C1CC(C1)(C(=O)[O-])C(=O)[O-].N.N.[Pt+2] [Carboplatin]; conditions: max 10 µM
Summary of the method: (§1)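 In 1536-well plates, cancer cell lines in 7.5 μl DMEM/F12 or RPMI with 10% FBS spent 24 hours at 37°C and 5% CO2 and were then dosed for 72 hours with final DMSO typically 0.2%. Viability was read by CellTiter-Glo 2.0 luminescence and scaled between blank-well and DMSO-well means. The single-agent IC50 was fitted from dose responses using a logistic curve in a non-linear mixed effects model, and that logistic curve had two parameters.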

AZD5363 = compound: C1CN(CCC1(C(=O)N[C@@H](CCO)C2=CC=C(C=C2)Cl)N)C3=NC=NC4=C3C=CN4 [AZD5363]; conditions: max 10 µM
Summary of the method: as §1

AZD1775 = compound: C=CCn1c(=O)c2cnc(Nc3ccc(N4CCN(C)CC4)cc3)nc2n1-c1cccc(C(C)(C)O)n1 [AZD1775]; conditions: max 3 µM
Summary of the method: as §1

Trametinib = compound: CC(=O)Nc1cccc(-n2c(=O)n(C3CC3)c(=O)c3c(Nc4ccc(I)cc4F)n(C)c(=O)c(C)c32)c1 [Trametinib]; conditions: max 1 µM
Summary of the method: as §1

Paclitaxel = compound: CC(=O)O[C@H]1C(=O)[C@@]2(C)[C@H]([C@H](OC(=O)c3ccccc3)[C@]3(O)C[C@H](OC(=O)[C@H](O)[C@@H](NC(=O)c4ccccc4)c4ccccc4)C(C)=C1C3(C)C)[C@]1(OC(C)=O)CO[C@@H]1C[C@@H]2O [Paclitaxel]; conditions: max 3 µM
Summary of the method: as §1

Palbociclib = compound: CC(=O)c1c(C)c2cnc(Nc3ccc(N4CCNCC4)cn3)nc2n(C2CCCC2)c1=O [Palbociclib]; conditions: max 10 µM
Summary of the method: as §1

AZD1390 = compound: CC(C)n1c(=O)n(C)c2cnc3cc(F)c(-c4ccc(OCCCN5CCCCC5)nc4)cc3c21 [AZD1390]; conditions: max 0.3 µM
Summary of the method: as §1

Venetoclax = compound: CC1(C)CCC(CN2CCN(c3ccc(C(=O)NS(=O)(=O)c4ccc(NCC5CCOCC5)c([N+](=O)[O-])c4)c(Oc4cnc5[nH]ccc5c4)c3)CC2)=C(c2ccc(Cl)cc2)C1 [Venetoclax]; conditions: max 1 µM
Summary of the method: as §1

Dasatinib = compound: CC1=C(C(=CC=C1)Cl)NC(=O)C2=CN=C(S2)NC3=CC(=NC(=N3)C)N4CCN(CC4)CCO [Dasatinib]; conditions: max 2 µM
Summary of the method: as §1

SG3199 = compound: CC1=CN2[C@@H](C1)C=NC3=CC(=C(C=C3C2=O)OC)OCCCCCOC4=C(C=C5C(=C4)N=C[C@@H]6CC(=CN6C5=O)C)OC [SG3199]; conditions: max 0.001 µM
Summary of the method: as §1

AZD2811 = compound: CCN(CCO)CCCOc1ccc2c(Nc3cc(CC(=O)Nc4cccc(F)c4)[nH]n3)ncnc2c1 [AZD2811]; conditions: max 1 µM
Summary of the method: as §1

SN-38 = compound: CCc1c2c(nc3ccc(O)cc13)-c1cc3c(c(=O)n1C2)COC(=O)[C@]3(O)CC [SN-38]; conditions: max 0.3 µM
Summary of the method: as §1

AZD0156 = compound: CN(C)CCCOc1ccc(-c2ccc3ncc4c(c3c2)n(C2CCOCC2)c(=O)n4C)cn1 [AZD0156]; conditions: max 3 µM
Summary of the method: as §1

AZD4320 = compound: CN(CC[C@H](CSC1=CC=CC=C1)NC2=C(C=C(C=C2)S(=O)(=O)NC(=O)C3=CC=C(C=C3)N4CCC(CC4)[C@H](C5=CC=CC=C5C6=CC=C(C=C6)Cl)O)S(=O)(=O)C(F)(F)F)CCO [AZD4320]; conditions: max 1 µM
Summary of the method: as §1

Alisertib = compound: COc1cc(Nc2ncc3c(n2)-c2ccc(Cl)cc2C(c2c(F)cccc2OC)=NC3)ccc1C(=O)O [Alisertib]; conditions: max 10 µM
Summary of the method: as §1

Etoposide = compound: COc1cc([C@@H]2c3cc4c(cc3[C@@H](O[C@@H]3O[C@@H]5CO[C@@H](C)O[C@H]5[C@H](O)[C@H]3O)[C@H]3COC(=O)[C@H]23)OCO4)cc(OC)c1O [Etoposide]; conditions: max 10 µM
Summary of the method: as §1

Gefitinib = compound: COc1cc2ncnc(Nc3ccc(F)c(Cl)c3)c2cc1OCCCN1CCOCC1 [Gefitinib]; conditions: max 10 µM
Summary of the method: as §1

Prexasertib = compound: COc1cccc(OCCCN)c1-c1cc(Nc2cnc(C#N)cn2)n[nH]1 [Prexasertib]; conditions: max 1 µM
Summary of the method: as §1

Doxorubicin = compound: COc1cccc2c1C(=O)c1c(O)c3c(c(O)c1C2=O)C[C@@](O)(C(=O)CO)C[C@@H]3O[C@H]1C[C@H](N)[C@H](O)[C@H](C)O1 [Doxorubicin]; conditions: max 1 µM
Summary of the method: as §1

AZD5153 = compound: COc1nnc2ccc(N3CCC(c4ccc(OCCN5CCN(C)C(=O)[C@H]5C)cc4)CC3)nn12 [AZD5153]; conditions: max 1 µM
Summary of the method: as §1

Lapatinib = compound: CS(=O)(=O)CCNCc1ccc(-c2ccc3ncnc(Nc4ccc(OCc5cccc(F)c5)c(Cl)c4)c3c2)o1 [Lapatinib]; conditions: max 10 µM
Summary of the method: as §1

AZD8186 = compound: C[C@@H](Nc1cc(F)cc(F)c1)c1cc(C(=O)N(C)C)cc2c(=O)cc(N3CCOCC3)oc12 [AZD8186]; conditions: max 10 µM
Summary of the method: as §1

Crizotinib = compound: C[C@@H](Oc1cc(-c2cnn(C3CCNCC3)c2)cnc1N)c1c(Cl)ccc(F)c1Cl [Crizotinib]; conditions: max 10 µM
Summary of the method: as §1

Savolitinib = compound: C[C@@H](c1ccc2nccn2c1)n1nnc2ncc(-c3cnn(C)c3)nc21 [Savolitinib]; conditions: max 1 µM
Summary of the method: as §1

AZD6738 = compound: C[C@@H]1COCCN1C2=NC(=NC(=C2)C3(CC3)[S@](=N)(=O)C)C4=C5C=CNC5=NC=C4 [AZD6738]; conditions: max 10 µM
Summary of the method: as §1

AZD5991 = compound: Cc1c2c(nn1C)CSCc1cc(n(C)n1)CSc1cc(c3ccccc3c1)OCCCc1c(C(=O)O)n(C)c3c-2c(Cl)ccc13 [AZD5991]; conditions: max 1 µM
Summary of the method: as §1

AZD7648 = compound: Cc1cc2ncnn2cc1Nc1ncc2c(n1)n(C1CCOCC1)c(=O)n2C [AZD7648]; conditions: max 10 µM
Summary of the method: as §1

Taselisib = compound: Cc1nc(-c2cn3c(n2)-c2ccc(-c4cnn(C(C)(C)C(N)=O)c4)cc2OCC3)n(C(C)C)n1 [Taselisib]; conditions: max 10 µM
Summary of the method: as §1

Selumetinib = compound: Cn1cnc2c(F)c(Nc3ccc(Br)cc3Cl)c(C(=O)NOCCO)cc21 [Selumetinib]; conditions: max 10 µM
Summary of the method: as §1

SRA737 = compound: N#Cc1cnc(Nc2cc(NC[C@H]3CNCCO3)c(C(F)(F)F)cn2)cn1 [SRA737]; conditions: max 10 µM
Summary of the method: as §1

MK-2206 = compound: NC1(c2ccc(-c3nc4ccn5c(=O)[nH]nc5c4cc3-c3ccccc3)cc2)CCC1 [MK-2206]; conditions: max 10 µM
Summary of the method: as §1

Gemcitabine = compound: Nc1ccn([C@@H]2O[C@H](CO)[C@@H](O)C2(F)F)c(=O)n1 [Gemcitabine]; conditions: max 0.3 µM
Summary of the method: as §1

[1] = compound: O=C(Nc1ccc2[nH]nc(-c3ccncc3)c2c1)[C@@H]1CCN(CC(=O)N2CCN(c3ccc(-c4ncccn4)cc3)CC2)C1; conditions: max 5 µM
Summary of the method: as §1

Olaparib = compound: O=C(c1cc(Cc2n[nH]c(=O)c3ccccc23)ccc1F)N1CCN(C(=O)C2CC2)CC1 [Olaparib]; conditions: max 10 µM
Summary of the method: as §1

5-Fluorouracil = compound: O=c1[nH]cc(F)c(=O)[nH]1 [5-Fluorouracil]; conditions: max 20 µM
Summary of the method: as §1

Cell Line	IC50, cell viability 72 h (Carboplatin)	IC50, cell viability 72 h (AZD5363)	IC50, cell viability 72 h (AZD1775)	IC50, cell viability 72 h (Trametinib)	IC50, cell viability 72 h (Paclitaxel)	IC50, cell viability 72 h (Palbociclib)	IC50, cell viability 72 h (AZD1390)	IC50, cell viability 72 h (Venetoclax)	IC50, cell viability 72 h (Dasatinib)	IC50, cell viability 72 h (SG3199)	IC50, cell viability 72 h (AZD2811)	IC50, cell viability 72 h (SN-38)	IC50, cell viability 72 h (AZD0156)	IC50, cell viability 72 h (AZD4320)	IC50, cell viability 72 h (Alisertib)	IC50, cell viability 72 h (Etoposide)	IC50, cell viability 72 h (Gefitinib)	IC50, cell viability 72 h (Prexasertib)	IC50, cell viability 72 h (Doxorubicin)	IC50, cell viability 72 h (AZD5153)	IC50, cell viability 72 h (Lapatinib)	IC50, cell viability 72 h (AZD8186)	IC50, cell viability 72 h (Crizotinib)	IC50, cell viability 72 h (Savolitinib)	IC50, cell viability 72 h (AZD6738)	IC50, cell viability 72 h (AZD5991)	IC50, cell viability 72 h (AZD7648)	IC50, cell viability 72 h (Taselisib)	IC50, cell viability 72 h (Selumetinib)	IC50, cell viability 72 h (SRA737)	IC50, cell viability 72 h (MK-2206)	IC50, cell viability 72 h (Gemcitabine)	IC50, cell viability 72 h [1]	IC50, cell viability 72 h (Olaparib)	IC50, cell viability 72 h (5-Fluorouracil)
GI-1 (Glioblastoma)	> 10000 nM	7330 nM	755 nM	> 1000 nM	10.2 nM	> 10000 nM	> 300 nM	> 1000 nM	> 2000 nM	> 1 nM	> 1000 nM	9.55 nM	> 3000 nM	> 1000 nM	> 10000 nM	4030 nM	> 10000 nM	17.8 nM	670 nM	303 nM	> 10000 nM	9590 nM	5430 nM	> 1000 nM	2100 nM	737 nM	> 10000 nM	3040 nM	> 10000 nM	3870 nM	> 10000 nM	53.3 nM	> 5000 nM	> 10000 nM	> 20000 nM
SNU-C1 (Colorectal Carcinoma)	> 10000 nM	> 10000 nM	> 3000 nM	75.1 nM	> 3000 nM	> 10000 nM	> 300 nM	> 1000 nM	> 2000 nM	> 1 nM	> 1000 nM	> 300 nM	> 3000 nM	> 1000 nM	> 10000 nM	> 10000 nM	> 10000 nM	73.5 nM	> 1000 nM	> 1000 nM	> 10000 nM	> 10000 nM	> 10000 nM	> 1000 nM	> 10000 nM	> 1000 nM	> 10000 nM	3360 nM	1260 nM	> 10000 nM	9530 nM	> 300 nM	802 nM	> 10000 nM	> 20000 nM
EW-3 (Ewing's Sarcoma)	> 10000 nM	> 10000 nM	2300 nM	> 1000 nM	17.5 nM	> 10000 nM	> 300 nM	401 nM	> 2000 nM	> 1 nM	> 1000 nM	2.07 nM	> 3000 nM	27.6 nM	8570 nM	1100 nM	> 10000 nM	183 nM	86.7 nM	496 nM	> 10000 nM	> 10000 nM	9570 nM	> 1000 nM	2030 nM	470 nM	> 10000 nM	> 10000 nM	> 10000 nM	> 10000 nM	> 10000 nM	8.11 nM	> 5000 nM	> 10000 nM	> 20000 nM
KINGS-1 (Low Grade Glioma)	> 10000 nM	> 10000 nM	> 3000 nM	> 1000 nM	> 3000 nM	> 10000 nM	> 300 nM	> 1000 nM	> 2000 nM	> 1 nM	> 1000 nM	> 300 nM	> 3000 nM	> 1000 nM	> 10000 nM	> 10000 nM	> 10000 nM	> 1000 nM	> 1000 nM	> 1000 nM	> 10000 nM	> 10000 nM	> 10000 nM	> 1000 nM	> 10000 nM	> 1000 nM	> 10000 nM	> 10000 nM	> 10000 nM	> 10000 nM	> 10000 nM	> 300 nM	> 5000 nM	> 10000 nM	> 20000 nM
LC4-1 (B-Lymphoblastic Leukemia)	> 10000 nM	> 10000 nM	269 nM	> 1000 nM	6.82 nM	4230 nM	> 300 nM	3.63 nM	> 2000 nM	> 1 nM	11.1 nM	2.26 nM	> 3000 nM	2.54 nM	529 nM	355 nM	> 10000 nM	11.8 nM	83.3 nM	74.3 nM	6110 nM	> 10000 nM	3000 nM	> 1000 nM	1280 nM	220 nM	> 10000 nM	> 10000 nM	> 10000 nM	3640 nM	> 10000 nM	30.9 nM	3950 nM	> 10000 nM	9630 nM

— the supplement of paper PMC11061612
